Legend:
Homo sapiens [1] = species: Homo sapiens; assay: IC50 ratio between CDK4 and GSK-3
Homo sapiens [2] = species: Homo sapiens; assay: IC50 ratio between PKCbeta II and GSK-3
[3] = molecular target: Glycogen synthase kinase-3 (Homo sapiens, UniProt P49840+P49841); assay: Inhibitory concentration against the Glycogen synthase kinase-3; type: protein assay
[4] = molecular target: Glycogen synthase kinase-3 beta (Homo sapiens, UniProt P49841); assay: Inhibitory concentration to inhibit Ser396 phosphorylation of tau, a natural substrate of GSK-3 in SY5Y cells; type: functional, cell-based
Chain of Glycogen synthase kinase-3 beta (P49841 whole entry): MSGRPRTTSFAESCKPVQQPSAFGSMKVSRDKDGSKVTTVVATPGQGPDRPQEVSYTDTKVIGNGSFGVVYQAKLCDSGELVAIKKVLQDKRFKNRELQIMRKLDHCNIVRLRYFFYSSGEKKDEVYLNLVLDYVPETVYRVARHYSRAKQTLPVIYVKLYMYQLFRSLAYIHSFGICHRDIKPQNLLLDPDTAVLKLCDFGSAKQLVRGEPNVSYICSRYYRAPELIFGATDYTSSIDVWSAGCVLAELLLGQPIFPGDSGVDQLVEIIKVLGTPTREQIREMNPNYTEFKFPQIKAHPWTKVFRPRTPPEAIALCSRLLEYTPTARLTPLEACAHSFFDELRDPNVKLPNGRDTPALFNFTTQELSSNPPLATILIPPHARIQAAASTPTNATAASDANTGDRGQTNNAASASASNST

Selectivity (Homo sapiens [1])	Selectivity (Homo sapiens [2])	IC50 [3]	IC50 [4]	SMILES
7	53	3.3 nM		O=C1NC(=O)C(c2cn3c4c(cccc24)CNCC3)=C1c1cccc2c1OCC2
1900		1.3 nM		O=C1NC(=O)C(c2ccn3ncccc23)=C1c1cn2c3c(cccc13)CN(C(=O)N1CCOCC1)CC2
> 282	> 282	71 nM		O=C1NC(=O)C(c2cnc3ccncn23)=C1c1cn2c3c(cccc13)CN(C(=O)N1CCOCC1)CC2
2420	281	2 nM		O=C1NC(=O)C(c2cnc3ccccn23)=C1c1cn2c3c(cccc13)CN(C(=O)N1CCCCC1)CC2
907	635	1.6 nM		CN(C)C(=O)N1CCn2cc(C3=C(c4cnc5ccccn45)C(=O)NC3=O)c3cccc(c32)C1
89	190	3.2 nM		CN(C)C(=O)N1CCn2cc(C3=C(c4cccc5c4OCO5)C(=O)NC3=O)c3cccc(c32)C1
2650	1740	0.8 nM	7.7 nM	O=C1NC(=O)C(c2cnc3ccccn23)=C1c1cn2c3c(cccc13)CN(C(=O)C1CCOCC1)CC2
13	28	12 nM		O=C1NC(=O)C(c2cnc3ccccn23)=C1c1cn2c3c(cccc13)CNCC2
1	15	45 nM		O=C1NC(=O)C(c2cccc3ccsc23)=C1c1cn2c3c(cccc13)CNCC2
5	183	3.4 nM		O=C1NC(=O)C(c2cccc3ccoc23)=C1c1cn2c3c(cccc13)CNCC2
98	375	1 nM		CCC(=O)N1CCn2cc(C3=C(c4cncc5ccoc45)C(=O)NC3=O)c3cccc(c32)C1
10	18	30 nM		O=C1NC(=O)C(c2ccn3ncccc23)=C1c1cn2c3c(cccc13)CNCC2
50	240	2.5 nM		CC(=O)N1CCn2cc(C3=C(c4cccc5c4OCO5)C(=O)NC3=O)c3cccc(c32)C1
158		0.8 nM		O=C1NC(=O)C(c2cncc3ccoc23)=C1c1cn2c3c(cccc13)CN(C(=O)N1CCOCC1)CC2 [BISARYLMALEIMIDE 2]
		83 nM		O=C1NC(=O)C(c2cn3c4c(cccc24)CNCC3)=C1c1ccc2c(c1)COC2
14	3	330 nM		O=C1NC(=O)C(c2cnc3ccncn23)=C1c1cn2c3c(cccc13)CNCC2
19	> 334	60 nM		O=C1NC(=O)C(c2cnc3cnccn23)=C1c1cn2c3c(cccc13)CNCC2
77	133	1.1 nM		CC(=O)N1CCn2cc(C3=C(c4cccc5c4OCC5)C(=O)NC3=O)c3cccc(c32)C1
2	103	13 nM		O=C1NC(=O)C(c2cn3c4c(cccc24)CNCC3)=C1c1cccc2c1OCO2
35	89	2.7 nM		CN(C)C(=O)N1CCn2cc(C3=C(c4cccc5ccoc45)C(=O)NC3=O)c3cccc(c32)C1
1330	1300	1.6 nM	0.3 nM	O=C1NC(=O)C(c2cnc3cccnn23)=C1c1cn2c3c(cccc13)CN(C(=O)N1CCCCC1)CC2 [BISARYLMALEIMIDE 1]
92	108	2.1 nM		O=C1NC(=O)C(c2cncc3ccoc23)=C1c1cn2c3c(cccc13)CN(C(=O)N1CCCCC1)CC2
2020	522	1.8 nM	5 nM	CC(C)C(=O)N1CCn2cc(C3=C(c4cnc5ccccn45)C(=O)NC3=O)c3cccc(c32)C1

Selectivity (Homo sapiens [1])	Selectivity (Homo sapiens [2])	IC50 [3]	IC50 [4]	SMILES
		64 nM		O=C1NC(=O)C(c2cn3c4c(cccc24)CNCC3)=C1c1coc2ccccc12
112		1.2 nM		CN(C)C(=O)N1CCn2cc(C3=C(c4cncc5ccoc45)C(=O)NC3=O)c3cccc(c32)C1
4550	> 6300	3.2 nM	11 nM	O=C1NC(=O)C(c2cnc3cnccn23)=C1c1cn2c3c(cccc13)CN(C(=O)N1CCOCC1)CC2
1	39	41 nM		O=C1NC(=O)C(c2cn3c4c(cccc24)CNCC3)=C1c1cccc2occc12
		34 nM		O=C1NC(=O)C(c2cn3c4c(cccc24)CNCC3)=C1c1cccc2sccc12
		130 nM		O=C1NC(=O)C(c2cn3c4c(cccc24)CNCC3)=C1c1cccc2c1CCO2
		1.3 nM		O=C1NC(=O)C(c2cnc3ccccn23)=C1c1cn2c3c(cccc13)CN(C(=O)N1CCOCC1)CC2
8920	> 9500	2.1 nM	8.7 nM	O=C1NC(=O)C(c2cnc3cnccn23)=C1c1cn2c3c(cccc13)CN(C(=O)N1CCCCC1)CC2
60	422	0.9 nM		CC(=O)N1CCn2cc(C3=C(c4cncc5ccoc45)C(=O)NC3=O)c3cccc(c32)C1
1	28	33 nM		Cn1ccc2c(C3=C(c4cn5c6c(cccc46)CNCC5)C(=O)NC3=O)cccc21
20	112	120 nM		O=C1NC(=O)C(c2cnc3ncccn23)=C1c1cn2c3c(cccc13)CNCC2
8580	> 11800	1.7 nM	297 nM	O=C1NC(=O)C(c2cnc3ncccn23)=C1c1cn2c3c(cccc13)CN(C(=O)N1CCOCC1)CC2
7	7	19 nM		CC(=O)N1CCn2cc(C3=C(c4cccc5ccsc45)C(=O)NC3=O)c3cccc(c32)C1
10000	> 1060	1.9 nM	53 nM	O=C1NC(=O)C(c2cnc3ncccn23)=C1c1cn2c3c(cccc13)CN(C(=O)N1CCCCC1)CC2
1	9	27 nM		O=C1NC(=O)C(c2cn3c4c(cccc24)CNCC3)=C1c1cccc2c1ccn2CCCO
		150 nM		O=C1NC(=O)C(c2cccc3cc[nH]c23)=C1c1cn2c3c(cccc13)CNCC2
6	54	3.2 nM		O=C1NC(=O)C(c2cncc3ccoc23)=C1c1cn2c3c(cccc13)CNCC2
15	133	4.8 nM		O=C1NC(=O)C(c2cnc3cccnn23)=C1c1cn2c3c(cccc13)CNCC2
18	202	27 nM		O=C1NC(=O)C(c2cn3c4c(cccc24)CNCC3)=C1c1ccc2c(c1)OCO2
370	235	4.7 nM	38 nM	CN(C)C(=O)N1CCn2cc(C3=C(c4ccn5ncccc45)C(=O)NC3=O)c3cccc(c32)C1
25	80	1.5 nM		CC(=O)N1CCn2cc(C3=C(c4cccc5ccoc45)C(=O)NC3=O)c3cccc(c32)C1
483	457	1.9 nM	111 nM	CC(=O)N1CCn2cc(C3=C(c4cnc5ccccn45)C(=O)NC3=O)c3cccc(c32)C1
